What was measured:
[1] = xn = mol fraction of the nth substance listed; conditions: Liquid, dynamic ligfht scattering
[2] = refractive index (other wavelength) (dimensionless); xn = mol fraction of the nth substance listed; conditions: Liquid, Wavelength=532 nm

OCC(O)CO [glycerol] + O
[1]
Conditions	binary diffusion coefficient [m2/s]
322.99 K, x1 = 0.5	2.54e-10
323.07 K, x1 = 0.699	1.4e-10
323.15 K, x1 = 0.299	5.6e-10
347.98 K, x1 = 0.5	5.69e-10
348.19 K, x1 = 0.299	1.04e-09
351.63 K, x1 = 0.699	3.69e-10
372.92 K, x1 = 0.699	6.93e-10
373.17 K, x1 = 0.5	1.04e-09
373.3 K, x1 = 0.299	1.73e-09
397.7 K, x1 = 0.699	1.45e-09
398.05 K, x1 = 0.299	2.84e-09
398.12 K, x1 = 0.5	1.9e-09
422.61 K, x1 = 0.299	4.12e-09
423.15 K, x1 = 0.5	2.87e-09
448.21 K, x1 = 0.5	4.8e-09

[2]
Conditions	refractive index
295.65 K, Standard Abbe refractometry, x1 = 0.299	1.422
296.15 K, beam displacement method, x1 = 0.699	1.461
314.15 K, Standard Abbe refractometry, x1 = 0.299	1.42
322.99 K, beam displacement method, x1 = 0.5	1.436
323.15 K, beam displacement method, x1 = 0.299	1.417
331.65 K, Standard Abbe refractometry, x1 = 0.299	1.415
347.96 K, beam displacement method, x1 = 0.5	1.43
348.15 K, beam displacement method, x1 = 0.299	1.411
348.45 K, beam displacement method, x1 = 0.699	1.445
373.05 K, beam displacement method, x1 = 0.699	1.438
373.16 K, beam displacement method, x1 = 0.299	1.403
373.23 K, beam displacement method, x1 = 0.5	1.423
398.11 K, beam displacement method, x1 = 0.5	1.417
398.15 K, beam displacement method, x1 = 0.299	1.396
398.25 K, beam displacement method, x1 = 0.699	1.431
421.85 K, beam displacement method, x1 = 0.699	1.424
423.15 K, beam displacement method, x1 = 0.5	1.409

Reference: the NIST ThermoML archive (doi:10.1021/acs.jced.7b00717)
